Marks after values point to notes of the source that are not given here.
settings: pH 2.3

Compound | Log P
C=CCOc1ncccc1C(NC(C)c1nccs1)=C(C#N)C(=O)OCC (racemic) [Compound 1506] | 2.03^[c]; 2.03^[b]

same assay, conditions: pH 2.7

Compound | Log P
C=CCCCC(C=C)NC(=C(C#N)C(=O)OCC)c1ccsc1Br (racemic) [Compound 1018] | 4.67^[a]
CCOC(=O)C(C#N)=C(NC(C)CSc1cc(Cl)ccc1Cl)c1cn(C)nc1C(F)F (racemic) [Compound 1235] | 4.08^[a]
CCOC(=O)C(C#N)=C(NC(C)CSc1ccc(Cl)c(Cl)c1)c1cn(C)nc1C(F)F (racemic) [Compound 1236] | 4.2^[a]
CCOC(=O)C(C#N)=C(NC(C)COc1cccc(C(F)(F)F)c1)c1cn(C)nc1C(F)F (racemic) [Compound 1237] | 3.92^[a]
CCOC(=O)C(C#N)=C(NCC(c1ccccc1)C(C)C)c1cn(C)nc1C(F)F (racemic) [Compound 1239] | 3.94^[a]
CCOC(=O)C(C#N)=C(NC(C)C(=O)CC)c1cn(C)nc1C(F)F (racemic) [Compound 1240] | 2.47^[a]
CCOC(=O)C(C#N)=C(NC(C)COCc1ccccc1Cl)c1cn(C)nc1C(F)F (racemic) [Compound 1241] | 3.83^[a]
CCOC(=O)C(C#N)=C(NC(C)COc1ccccc1C)c1cn(C)nc1C(F)F (racemic) [Compound 1242] | 3.78^[a]
CCOC(=O)C(C#N)=C(NC(C)c1ccccn1)c1ccnc(C)c1Cl (racemic) [Compound 1243] | 2.6^[a]
CCOC(=O)C(C#N)=C(NC(C)c1nccs1)c1cn(C)nc1I (racemic) [Compound 1247] | 3.46^[a]
CCOC(=O)C(C#N)=C(NC(C)c1ccccn1)c1cn(C)nc1I (racemic) [Compound 1248] | 2.37^[a]
CCCC(C#N)NC(=C(C#N)C(=O)OCC)c1cn(C)nc1C(F)F (racemic) [Compound 1250] | 2.77^[a]
CCOC(=O)C(C#N)=C(NC(C#N)CC)c1cn(C)nc1C(F)F (racemic) [Compound 1251] | 2.45^[a]
CCOC(=O)C(C#N)=C(NC(C#N)CC(C)C)c1cn(C)nc1C(F)F (racemic) [Compound 1252] | 3.04^[a]
CCOC(=O)C(C#N)=C(NC(C)C(F)(F)F)c1cn(C)nc1C(F)F (racemic) [Compound 1253] | 2.92^[a]
CCOC(=O)C(C#N)=C(NC(C)C#N)c1cn(C)nc1C(F)F (racemic) [Compound 1254] | 2.15^[a]
CCNC(=O)C(C)NC(=C(C#N)C(=O)OCC)c1cn(C)nc1C(F)F (racemic) [Compound 1256] | 1.88^[a]
CCOC(=O)C(C#N)=C(NC(C#N)c1cccc(Cl)c1Cl)c1cccnc1Cl (racemic) [Compound 1257] | 3.69^[a]
C#CCC(C#N)NC(=C(C#N)C(=O)OCC)c1cccnc1Cl (racemic) [Compound 1258] | 2.37^[a]
CCOC(=O)C(C#N)=C(NC(C#N)Cc1ccccc1)c1cccnc1Cl (racemic) [Compound 1259] | 3.02^[a]
CCOC(=O)C(C#N)=C(NC(c1ccc(N(C)C)cc1)C(F)(F)F)c1cccnc1Cl (racemic) [Compound 1260] | 3.99^[a]
CCOC(=O)C(C#N)=C(NC(c1ccc(Cl)cc1)C(F)(F)F)c1cccnc1Cl (racemic) [Compound 1261] | 4.25^[a]
CCOC(=O)C(C#N)=C(NC(Cc1ncccc1C)C(F)(F)F)c1cccnc1Cl (racemic) [Compound 1262] | 3.04^[a]
CCOC(=O)C(C#N)=C(NC(C#N)c1ccc(Cl)cc1Cl)c1cccnc1Cl (racemic) [Compound 1267] | 3.83^[a]

Compound | Log P
CCOC(=O)C(C#N)=C(NC(C)C(=O)CC)c1cccnc1Cl (racemic) [Compound 1270] | 2.64^[a]
CCNC(=O)C(C#N)=C(NC(C)c1ccccn1)c1ccnc(C)c1Cl (racemic) [Compound 1277] | 2.7^[a]
CC(NC(=C(C#N)C(=O)NC1CC1)c1cn(C)nc1C(F)F)c1nccs1 (racemic) [Compound 1279] | 2.04^[a]
CC(NC(=C(C#N)C(=O)NC1CC1)c1cn(C)nc1C(F)F)c1ccccn1 (racemic) [Compound 1280] | 1.84^[a]
COCCNC(=O)C(C#N)=C(NC(C)c1nccs1)c1cn(C)nc1C(F)F (racemic) [Compound 1287] | 1.96^[a]
COCCNC(=O)C(C#N)=C(NC(C)c1ccccn1)c1cn(C)nc1C(F)F (racemic) [Compound 1288] | 1.75^[a]
C=CCNC(=O)C(C#N)=C(NC(C)c1ccccn1)c1cn(C)nc1C(F)F (racemic) [Compound 1291] | 2.02^[a]
C=CCNC(=O)C(C#N)=C(NC(C)c1nccs1)c1cn(C)nc1C(F)F (racemic) [Compound 1292] | 2.2^[a]
CCNC(=O)C(C#N)=C(NC(C)c1ccccn1)c1cn(C)nc1C(F)F (racemic) [Compound 1293] | 1.86^[a]
CCNC(=O)C(C#N)=C(NC(C)c1nccs1)c1cn(C)nc1C(F)F (racemic) [Compound 1294] | 2.05^[a]
CC#CC(C)NC(=C(C#N)C(=O)OCC)c1ccnc(Cl)c1Cl (racemic) [Compound 1386] | 3.44^[a]
CCOC(=O)C(C#N)=C(NC(C)c1ncc(C)s1)c1ccnc(Cl)c1Cl (racemic) [Compound 1389] | 3.33^[a]
CCCC(C)NC(=C(C#N)C(=O)OCC)c1ccnc(Cl)c1Cl (racemic) [Compound 1390] | 3.99^[a]
CCOC(=O)C(C#N)=C(NC(C)c1ccccn1)c1ccnc(Br)c1Cl (racemic) [Compound 1391] | 3.09^[a]
CCOC(=O)C(C#N)=C(NC(C)c1ccccn1)c1ccnc(SC)c1Cl (racemic) [Compound 1393] | 3.35^[a]
CCOC(=O)C(C#N)=C(NC(C)c1ccccn1)c1ccncc1C(F)(F)F (racemic) [Compound 1394] | 2.7^[a]
CCOC(=O)C(C#N)=C(NC(C)c1ccccn1)c1ccnc(Br)c1F (racemic) [Compound 1395] | 3^[a]
CCOC(=O)C(C#N)=C(NC(C)c1ccccn1)c1ccnc(CC)c1Cl (racemic) [Compound 1396] | 2.96^[a]
CCCc1nccc(C(NC(C)c2ccccn2)=C(C#N)C(=O)OCC)c1Cl (racemic) [Compound 1397] | 3.29^[a]
CCOC(=O)C(C#N)=C(NC(C)c1ccccn1)c1ccnc(-c2ccccc2)c1Cl (racemic) [Compound 1398] | 3.33^[a]
CCOC(=O)C(C#N)=C(NC(C)c1ccccn1)c1ccnc(Cl)c1Br (racemic) [Compound 1404] | 3.06^[a]
CCOC(=O)C(C#N)=C(NC(C)c1nccs1)c1ccnc(Cl)c1Br (racemic) [Compound 1406] | 2.96^[a]
C#CCNC(=O)C(C#N)=C(NC(C)c1ccccn1)c1cn(C)nc1C(F)F (racemic) [Compound 1407] | 1.89^[a]
CCOC(=O)C(C#N)=C(NC(C)c1ccccn1)c1ccnc(Br)c1Br (racemic) [Compound 1409] | 3.11^[a]

Compound | Log P
CCNC(=O)C(C#N)=C(NC(C)c1ccccn1)c1ccnc(Cl)c1Br (racemic) [Compound 1411] | 2.55^[a]
CCOC(=O)C(C#N)=C(NC(C)c1cnccn1)c1cccnc1Cl (racemic) [Compound 1415] | 2.13^[a]
CCOC(=O)C(C#N)=C(NC(C)C(C)OC)c1scnc1Cl (racemic) [Compound 1480] | 2.94^[a]
CCOC(=O)C(C#N)=C(NC(C)C(C)CC)c1scnc1Cl (racemic) [Compound 1481] | 3.92^[a]
CCOC(=O)C(C#N)=C(NC(C)c1nccs1)c1cnn(C)c1Cl (racemic) [Compound 1483] | 2.42^[a]
CCOC(=O)C(C#N)=C(NC(C)c1ccccn1)c1cnn(C)c1Cl (racemic) [Compound 1484] | 2.35^[a]
CCOC(=O)C(C#N)=C(NC(C)c1ccccn1)c1ccnc2ccccc12 (racemic) [Compound 1497] | 2.5^[a]
CCOC(=O)C(C#N)=C(NC(C)C1CC1)c1ccnc2ccccc12 (racemic) [Compound 1500] | 3.02^[a]
CCOC(=O)C(C#N)=C(NC(c1cncnc1C)C(C)C)c1cccnc1Cl (racemic) [Compound 1538] | 2.28^[a]
CCOC(=O)C(C#N)=C(NC(C)c1nc2c(s1)CCCC2)c1cccnc1Cl (racemic) [Compound 1548] | 3.21^[a]
CCOC(=O)C(C#N)=C(NC(c1ccccn1)C(F)(F)F)c1cccnc1Cl (racemic) [Compound 1549] | 3.17^[a]
CCOC(=O)C(C#N)=C(NC(C)c1nc(C)sc1C)c1cccnc1Cl (racemic) [Compound 1552] | 2.84^[a]
CCOC(=O)C(C#N)=C(NC(c1cncnc1C(F)(F)F)C(C)C)c1cccnc1Cl (racemic) [Compound 1557] | 3.55^[a]
CCOC(=O)C(C#N)=C(NC(C)c1cc(Cl)ccc1Cl)c1cccnc1Cl (racemic) [Compound 1558] | 4.13^[a]
CCOC(=O)C(C#N)=C(NC(C)C1CC1)c1cn(C)nc1C(Cl)Cl (racemic) [Compound 1560] | 3.23^[a]
CCOC(=O)C(C#N)=C(NC(C)C1CCC1)c1cn(C)nc1C(Cl)Cl (racemic) [Compound 1561] | 3.67^[a]
CC(NC(=C(C#N)C(=O)NCCF)c1cccnc1Cl)c1nccs1 (racemic) [Compound 1563] | 2^[a]
CCOC(=O)C(C#N)=C(NC(C)c1ccccn1)c1cn(C)nc1C(Cl)Cl (racemic) [Compound 1565] | 2.7^[a]
CCOC(=O)C(C#N)=C(NC(C)c1nc(C)cs1)c1sccc1Br (single isomer, unassigned) [Compound 167] | 3.44^[a]
CCOC(=O)C(C#N)=C(NC(C)c1cccc2ccccc12)c1nc(Cl)ccc1Cl (stereo not drawn) [Compound 1] | 4.4^[a]
CCOC(=O)C(C#N)=C(NC(C)c1cccc2ccccc12)c1ncc(Cl)cc1Cl (stereo not drawn) [Compound 2] | 4.65^[a]
CCOC(=O)C(C#N)=C(NC(C)c1cccc2ccccc12)c1cnc(Cl)cc1Cl (stereo not drawn) [Compound 3] | 4.4^[a]
CCOC(=O)C(C#N)=C(NC(C)c1nccs1)c1cccnc1Cl (stereo not drawn) [Compound 6] | 2.58

same assay, conditions: pH 7.5

Compound | Log P
C=CCOc1ncccc1C(NC(C)c1nccs1)=C(C#N)C(=O)OCC (racemic) [Compound 1506] | 2.03^[c]; 2.03^[b]
CCOC(=O)C(C#N)=C(NC(C)c1nccs1)c1cccnc1Br (racemic) [Compound 1547] | 2.44
CCOCCOC(=O)C(C#N)=C(NC(C)c1nccs1)c1cccnc1Cl (stereo not drawn) [Compound 12] | 2.4
